Measured values taken from ChEMBL document CHEMBL1201862, “PubChem BioAssay data set” (2004).
Activity calls are given as the source filed them.

Columns and labels:
[1] = NIH3T3 cell viability loss – ATP luminescence, mouse fibroblasts, counter-screen, dose response (AID 2010); format: functional, cell-based;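 note: cells exposed to compound for about 90 hours before reading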
[2] = Trypanosoma cruzi growth suppression in host cells – NIH3T3 host cells, beta-gal luminescence, confirmation (AID 2044); format: functional, cell-based;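 note: intracellular parasites grown in NIH/3T3 mouse fibroblasts as host cells; luminescent beta-galactosidase reporter signal from transgenic T. cruzi replicating inside host cells; inhibitors lower the luminescence signal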
[3] = cells; format: functional
[4] = cells
[5] = molecular target: T1, Replicative DNA helicase DnaB (Mycobacterium tuberculosis, UniProt P9WMR3); assay: DnaB intein splicing inhibitors, dose response, biochemical, cell-free fluorescence (AID 449749); format: functional
T1 sequence (P9WMR3 whole entry): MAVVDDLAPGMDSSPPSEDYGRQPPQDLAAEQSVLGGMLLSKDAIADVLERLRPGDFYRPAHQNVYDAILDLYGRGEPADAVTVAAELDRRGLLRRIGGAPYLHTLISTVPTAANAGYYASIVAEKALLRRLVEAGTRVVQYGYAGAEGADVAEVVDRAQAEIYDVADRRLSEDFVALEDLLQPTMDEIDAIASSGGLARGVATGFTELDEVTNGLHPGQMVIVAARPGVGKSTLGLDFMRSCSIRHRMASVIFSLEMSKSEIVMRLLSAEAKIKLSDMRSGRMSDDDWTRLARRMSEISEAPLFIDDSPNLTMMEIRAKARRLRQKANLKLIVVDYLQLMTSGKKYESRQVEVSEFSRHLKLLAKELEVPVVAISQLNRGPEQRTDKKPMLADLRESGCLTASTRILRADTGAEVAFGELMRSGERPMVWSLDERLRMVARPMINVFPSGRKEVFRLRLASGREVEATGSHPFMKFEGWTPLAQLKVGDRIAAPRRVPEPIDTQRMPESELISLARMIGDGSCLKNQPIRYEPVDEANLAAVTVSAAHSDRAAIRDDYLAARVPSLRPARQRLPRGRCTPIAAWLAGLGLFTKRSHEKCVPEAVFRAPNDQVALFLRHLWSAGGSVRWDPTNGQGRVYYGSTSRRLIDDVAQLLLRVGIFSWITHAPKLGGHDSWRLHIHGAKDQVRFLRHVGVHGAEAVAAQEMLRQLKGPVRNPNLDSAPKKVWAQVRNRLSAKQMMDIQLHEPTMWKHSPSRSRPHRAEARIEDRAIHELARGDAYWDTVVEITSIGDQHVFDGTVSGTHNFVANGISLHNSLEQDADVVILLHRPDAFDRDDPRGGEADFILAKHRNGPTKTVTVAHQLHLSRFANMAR

[6] = molecular target: T2, Protein RecA (Mycobacterium tuberculosis, UniProt P9WHJ3); assay: Fluorescence Cell-Free Homogeneous Dose Retest to Identify Inhibitors of RecA-Intein Splicing Activity. [Related pubchem assays (depositor defined):AID2097, AID2223, AID489010, AID492950]; format: functional
T2 sequence (P9WHJ3 whole entry): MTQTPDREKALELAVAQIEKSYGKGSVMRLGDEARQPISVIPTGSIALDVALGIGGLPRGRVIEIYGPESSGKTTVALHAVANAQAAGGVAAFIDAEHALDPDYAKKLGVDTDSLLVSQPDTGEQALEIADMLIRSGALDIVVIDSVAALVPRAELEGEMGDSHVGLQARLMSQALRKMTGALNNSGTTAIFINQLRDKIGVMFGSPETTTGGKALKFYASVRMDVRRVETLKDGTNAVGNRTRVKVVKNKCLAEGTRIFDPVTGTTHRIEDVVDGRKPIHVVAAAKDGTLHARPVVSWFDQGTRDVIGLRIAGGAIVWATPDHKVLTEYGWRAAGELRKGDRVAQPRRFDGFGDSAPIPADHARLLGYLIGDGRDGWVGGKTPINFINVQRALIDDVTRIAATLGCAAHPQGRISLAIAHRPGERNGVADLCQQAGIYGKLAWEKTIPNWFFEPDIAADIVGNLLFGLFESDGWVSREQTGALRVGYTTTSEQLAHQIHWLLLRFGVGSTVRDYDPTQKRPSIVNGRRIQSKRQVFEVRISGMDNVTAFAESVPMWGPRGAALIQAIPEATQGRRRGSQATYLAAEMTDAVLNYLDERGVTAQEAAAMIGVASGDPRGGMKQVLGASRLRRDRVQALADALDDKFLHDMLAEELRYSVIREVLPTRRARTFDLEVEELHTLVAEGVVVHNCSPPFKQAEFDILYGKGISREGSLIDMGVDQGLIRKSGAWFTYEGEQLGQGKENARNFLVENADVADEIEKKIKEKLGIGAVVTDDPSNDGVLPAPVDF

[7] = molecular target: Bifunctional protein GlmU (Mycobacterium tuberculosis, UniProt P9WMN3); assay: Inhibitors of Mycobacterial Glucosamine-1-phosphate acetyl transferase (GlmU). Secondary screen.; design: species or system Mycobacterium tuberculosis H37Rv
[8] = molecular target: Genome polyprotein (dengue virus type 2, UniProt P29990); assay: flavivirus cap methylation enzyme inhibition – biochemical, confirmation dose response, primary screen (AID 588689); format: functional
[9] = molecular target: T3, Mannose-6-phosphate isomerase (Homo sapiens, UniProt P34949); assay: MPI inhibition at elevated mannose 6-phosphate – biochemical, fluorescence intensity, high mannose 6-phosphate, primary screen (AID 1220)
T3 sequence (P34949 whole entry): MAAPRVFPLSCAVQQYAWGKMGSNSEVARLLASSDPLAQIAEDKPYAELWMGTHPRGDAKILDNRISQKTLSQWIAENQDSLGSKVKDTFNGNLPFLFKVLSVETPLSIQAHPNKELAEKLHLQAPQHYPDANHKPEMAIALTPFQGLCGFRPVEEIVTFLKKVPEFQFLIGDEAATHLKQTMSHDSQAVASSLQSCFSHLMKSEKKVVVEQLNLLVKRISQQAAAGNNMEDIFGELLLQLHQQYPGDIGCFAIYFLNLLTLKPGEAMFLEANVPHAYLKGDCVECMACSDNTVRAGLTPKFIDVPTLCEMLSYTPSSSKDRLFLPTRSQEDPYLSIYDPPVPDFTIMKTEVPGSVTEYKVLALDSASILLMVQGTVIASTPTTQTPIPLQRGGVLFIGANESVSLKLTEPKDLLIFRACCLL

[10] = THP-1 cell cytotoxicity, dose response, cytotoxicity control for non-replicating M. tuberculosis project (AID 489025); format: functional
[11] = viability loss in THP-1 monocytes – THP-1 cells, cytotoxicity control for Vif-APOBEC3G degradation inhibitor project, dose response (AID 1117359); format: functional; conditions: THP-1
[12] = molecular target: Induced myeloid leukemia cell differentiation protein Mcl-1 (Homo sapiens, UniProt Q07820); format: functional
[13] = molecular target: Large T antigen (Simian virus 40, UniProt P03070); format: functional, Betapolyomavirus macacae;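 note: Confirmatory-stage PubChem screen for compounds that inhibit SV40 T antigen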
[14] = molecular target: T4, Short transient receptor potential channel 4 (Mus musculus, UniProt Q9QUQ5); assay: block of DAMGO-driven TRPC4 calcium entry – cell-based, HEK293 TRPC4/mu-opioid, Fluo-4 calcium, dose response (AID 434942); format: functional;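 note: potency of inhibitors blocking the TRPC4 calcium response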
T4 sequence (Q9QUQ5 whole entry): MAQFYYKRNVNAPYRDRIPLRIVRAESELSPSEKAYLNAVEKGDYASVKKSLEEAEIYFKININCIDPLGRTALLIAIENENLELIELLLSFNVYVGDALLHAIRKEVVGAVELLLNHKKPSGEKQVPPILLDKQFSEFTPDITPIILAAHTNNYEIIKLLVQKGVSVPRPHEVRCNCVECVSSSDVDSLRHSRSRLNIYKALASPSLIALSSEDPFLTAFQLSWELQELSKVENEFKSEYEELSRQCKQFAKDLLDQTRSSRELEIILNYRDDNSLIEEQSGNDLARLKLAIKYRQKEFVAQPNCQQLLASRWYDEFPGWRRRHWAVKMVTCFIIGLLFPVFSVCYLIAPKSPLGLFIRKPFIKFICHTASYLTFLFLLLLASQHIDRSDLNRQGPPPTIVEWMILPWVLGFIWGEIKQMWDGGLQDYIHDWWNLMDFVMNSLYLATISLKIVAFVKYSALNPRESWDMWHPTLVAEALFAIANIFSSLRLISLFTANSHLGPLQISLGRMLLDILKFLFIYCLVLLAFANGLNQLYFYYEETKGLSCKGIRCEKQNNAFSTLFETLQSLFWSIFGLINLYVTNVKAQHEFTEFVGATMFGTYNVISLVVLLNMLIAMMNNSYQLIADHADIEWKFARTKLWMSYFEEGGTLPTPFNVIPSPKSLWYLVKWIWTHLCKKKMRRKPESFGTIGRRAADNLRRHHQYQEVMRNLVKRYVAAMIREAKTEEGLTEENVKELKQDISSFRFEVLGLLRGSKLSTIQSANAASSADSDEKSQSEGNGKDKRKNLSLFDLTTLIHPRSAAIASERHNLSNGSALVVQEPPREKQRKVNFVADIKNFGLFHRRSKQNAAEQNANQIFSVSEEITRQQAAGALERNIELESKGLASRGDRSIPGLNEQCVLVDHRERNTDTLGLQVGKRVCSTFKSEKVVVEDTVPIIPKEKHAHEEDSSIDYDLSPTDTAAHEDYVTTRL

[15] = HIV-1 Vif–A3G interaction blockers – biochemical, TR-FRET, GST-Vif 1-94, biotin-A3G peptide, dose response retest, primary screen (AID 1117319); format: functional;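 note: TR-FRET signal of purified GST-Vif binding a biotinylated A3G peptide; inhibitors lower the FRET signal by blocking Vif and A3G binding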
[16] = molecular target: Protein Tat (Human immunodeficiency virus type 1 group M subtype B (isolate HXB2)(HIV-1), UniProt P04608); format: functional;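 note: tat binding to TAR RNA read out by fluorescence polarization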
[17] = luciferase reporter signal reduction – luminescence, H4-C neuroglioblastoma cells, dose response (AID 2458); format: functional, cell-based;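 note: H4 neuroglioblastoma cells stably carrying a luciferase reporter gene fusion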
[18] = cells; format: functional, cell-based
[19] = alpha-synuclein stem-loop luciferase translation blockers – H4 neuroglioma cells, luminescence, confirmation (AID 1988); format: functional, cell-based
[20] = Luminescence Cell-Based Dose Response HTS to Identify Inhibitors of 5'UTR Stem-Loop Driven Prion Protein mRNA Translation in H4 Neuroglioblastoma Cells. [Related pubchem assays: 1827 (Project Summary), 1813 (Primary HTS)]; format: functional
[21] = alpha-synuclein stem-loop translation blockers – luminescence, H4 neuroglioblastoma cells, dose confirmation, confirmation (AID 2454); format: functional, cell-based;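 note: H4 neuroglioblastoma cells carrying an alpha-synuclein 5'UTR luciferase reporter; potency for inhibition of the luciferase signal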
[22] = luciferase reporter signal suppression in cells – H4 neuroglioma cells, luminescence, dose response (AID 1990); format: functional, cell-based
[23] = viability loss of HPDE-C7K cells – cell-based, fluorescence, HTS, primary screen (AID 431); format: functional; conditions: Homo sapiens
[24] = HPDE-C7 pancreatic duct cell viability loss – fluorescence, HTS (AID 430); format: functional, cell-based; conditions: Homo sapiens
[25] = molecular target: T5, Bcl-2-related protein A1 (Mus musculus, UniProt Q07440); assay: displacement of Bid BH3 peptide from Bfl-1 – biochemical, fluorescence polarization, FITC-Bid, mouse, primary screen (AID 432)
T5 sequence (Q07440 whole entry): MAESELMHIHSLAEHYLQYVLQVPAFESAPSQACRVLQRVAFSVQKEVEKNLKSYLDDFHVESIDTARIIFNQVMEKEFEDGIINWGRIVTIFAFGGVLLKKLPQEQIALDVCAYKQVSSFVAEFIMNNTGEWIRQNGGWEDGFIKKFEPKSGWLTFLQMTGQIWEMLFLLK

[26] = molecular target: Glyceraldehyde-3-phosphate dehydrogenase (Homo sapiens, UniProt P04406)
[27] = molecular target: T5, Bcl-2-related protein A1; assay: Bfl-1 binding inhibitors, SAR follow-up, biochemical, fluorescence polarization (AID 1070)
[28] = molecular target: T5, Bcl-2-related protein A1; assay: small-molecule antagonists of Bfl-1/BH3 interaction – biochemical, TR-FRET, mouse Bfl-1, confirmation (AID 621);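 note: TR-FRET binding of GST-Bfl-1 to FITC-labelled Bid peptide via terbium antibody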

Sequence of Protein Tat (P04608 whole entry, the tested form may be a part): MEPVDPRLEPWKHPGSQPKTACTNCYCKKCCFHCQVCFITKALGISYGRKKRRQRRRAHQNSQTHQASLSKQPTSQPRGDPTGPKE
Sequence of Induced myeloid leukemia cell differentiation protein Mcl-1 (Q07820 whole entry): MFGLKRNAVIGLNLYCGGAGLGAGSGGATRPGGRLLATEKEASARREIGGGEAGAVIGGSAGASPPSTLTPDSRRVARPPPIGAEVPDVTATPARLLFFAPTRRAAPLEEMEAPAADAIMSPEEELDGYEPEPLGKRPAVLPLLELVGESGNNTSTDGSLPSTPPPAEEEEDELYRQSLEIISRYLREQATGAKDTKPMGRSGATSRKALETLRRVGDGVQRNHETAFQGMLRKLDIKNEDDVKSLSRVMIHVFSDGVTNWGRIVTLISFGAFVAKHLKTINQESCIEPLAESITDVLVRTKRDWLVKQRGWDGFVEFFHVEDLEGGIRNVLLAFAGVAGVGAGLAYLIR
Sequence of Bifunctional protein GlmU (P9WMN3 whole entry): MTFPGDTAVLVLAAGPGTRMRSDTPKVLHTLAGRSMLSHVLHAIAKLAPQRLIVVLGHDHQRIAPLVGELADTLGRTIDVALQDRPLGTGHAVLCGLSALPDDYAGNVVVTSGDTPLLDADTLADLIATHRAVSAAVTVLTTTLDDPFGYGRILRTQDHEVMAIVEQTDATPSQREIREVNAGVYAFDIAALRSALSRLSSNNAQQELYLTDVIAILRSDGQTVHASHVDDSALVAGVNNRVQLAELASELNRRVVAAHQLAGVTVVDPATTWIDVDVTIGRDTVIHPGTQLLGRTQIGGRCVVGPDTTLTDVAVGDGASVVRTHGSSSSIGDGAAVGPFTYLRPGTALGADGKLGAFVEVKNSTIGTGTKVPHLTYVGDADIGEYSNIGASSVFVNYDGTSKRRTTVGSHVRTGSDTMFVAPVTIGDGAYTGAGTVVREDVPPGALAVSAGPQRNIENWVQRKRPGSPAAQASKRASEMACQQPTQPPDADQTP
Sequence of Large T antigen (P03070 whole entry): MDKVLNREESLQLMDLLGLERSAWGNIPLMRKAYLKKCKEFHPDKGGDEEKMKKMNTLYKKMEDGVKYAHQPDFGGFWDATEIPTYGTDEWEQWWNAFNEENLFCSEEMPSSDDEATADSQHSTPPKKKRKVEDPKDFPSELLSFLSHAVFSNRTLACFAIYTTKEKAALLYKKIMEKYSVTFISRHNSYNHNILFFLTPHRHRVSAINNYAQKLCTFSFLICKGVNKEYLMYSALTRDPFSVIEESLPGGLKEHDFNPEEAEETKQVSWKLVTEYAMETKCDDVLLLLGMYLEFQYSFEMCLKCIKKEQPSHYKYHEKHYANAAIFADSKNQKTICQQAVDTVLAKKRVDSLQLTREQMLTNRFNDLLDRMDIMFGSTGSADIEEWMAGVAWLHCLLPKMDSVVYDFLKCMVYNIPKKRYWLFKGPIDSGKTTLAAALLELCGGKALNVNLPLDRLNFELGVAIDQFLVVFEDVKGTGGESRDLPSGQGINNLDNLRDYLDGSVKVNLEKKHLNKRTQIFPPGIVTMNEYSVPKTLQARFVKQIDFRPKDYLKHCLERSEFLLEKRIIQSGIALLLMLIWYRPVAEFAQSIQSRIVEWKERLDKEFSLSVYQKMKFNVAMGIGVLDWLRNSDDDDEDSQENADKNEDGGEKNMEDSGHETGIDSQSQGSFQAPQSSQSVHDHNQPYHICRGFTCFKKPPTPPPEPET
Sequence of Glyceraldehyde-3-phosphate dehydrogenase (P04406 whole entry): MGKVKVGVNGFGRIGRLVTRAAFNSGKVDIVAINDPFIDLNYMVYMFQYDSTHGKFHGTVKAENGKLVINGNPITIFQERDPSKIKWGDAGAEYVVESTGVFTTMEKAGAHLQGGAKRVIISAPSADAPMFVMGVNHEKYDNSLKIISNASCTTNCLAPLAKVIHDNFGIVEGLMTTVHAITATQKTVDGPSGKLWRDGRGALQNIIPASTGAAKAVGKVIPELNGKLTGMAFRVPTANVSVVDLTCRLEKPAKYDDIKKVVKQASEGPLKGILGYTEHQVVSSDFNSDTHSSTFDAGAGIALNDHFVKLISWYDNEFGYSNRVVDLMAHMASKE
Sequence of Genome polyprotein (P29990 2492-3391 limits assumed): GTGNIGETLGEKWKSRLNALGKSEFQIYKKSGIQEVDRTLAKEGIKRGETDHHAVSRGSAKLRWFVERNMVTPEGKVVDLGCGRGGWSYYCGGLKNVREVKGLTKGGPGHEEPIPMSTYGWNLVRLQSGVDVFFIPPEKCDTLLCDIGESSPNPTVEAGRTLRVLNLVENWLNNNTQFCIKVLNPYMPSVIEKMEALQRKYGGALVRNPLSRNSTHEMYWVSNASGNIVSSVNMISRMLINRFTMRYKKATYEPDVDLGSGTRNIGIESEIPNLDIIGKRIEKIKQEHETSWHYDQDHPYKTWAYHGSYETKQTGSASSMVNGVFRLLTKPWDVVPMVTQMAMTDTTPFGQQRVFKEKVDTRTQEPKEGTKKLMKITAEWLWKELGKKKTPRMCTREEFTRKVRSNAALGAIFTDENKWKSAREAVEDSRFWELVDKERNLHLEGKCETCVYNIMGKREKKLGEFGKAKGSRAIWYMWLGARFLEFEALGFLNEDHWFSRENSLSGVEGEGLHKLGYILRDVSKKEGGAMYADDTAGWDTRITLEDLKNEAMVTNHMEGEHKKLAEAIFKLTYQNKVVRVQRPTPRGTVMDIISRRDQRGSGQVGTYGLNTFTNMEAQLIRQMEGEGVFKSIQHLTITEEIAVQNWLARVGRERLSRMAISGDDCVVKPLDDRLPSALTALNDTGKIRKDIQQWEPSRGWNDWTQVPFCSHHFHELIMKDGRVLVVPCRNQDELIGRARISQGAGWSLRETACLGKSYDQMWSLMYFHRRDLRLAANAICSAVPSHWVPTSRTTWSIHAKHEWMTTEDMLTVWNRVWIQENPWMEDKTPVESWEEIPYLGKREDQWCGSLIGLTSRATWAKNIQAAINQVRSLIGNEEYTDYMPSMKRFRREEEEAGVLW

COc1cccc(OCCNC(=O)c2cc([N+](=O)[O-])cc([N+](=O)[O-])c2)c1
EC50 [1]: > 60 µM (not active)
EC50 [2]: < 0.1 µM (active)
IC50 [3]: 0.36 µM (active)
EC50 [4]: 0.086 µM (active)

O=C(O)c1cccc(Nc2cc(Cl)c3nonc3c2[N+](=O)[O-])c1
AC50 [5]: 2.05 µM (active)
EC50 [6]: 2.52 µM (active)
IC50 [7]: 131 µM (active)
IC50 [8]: 10.7 µM (active)

COc1ccccc1CNc1ccc(N2CCCCC2)cc1
EC50 [1]: > 60 µM (not active)
EC50 [2]: 3.17 µM (active)
IC50 [9]: > 50 µM (not active)

O=C1NC(=S)S/C1=C\c1ccc(SCc2ccco2)o1
CC50 [10]: > 40 µM (active)
IC50 [7]: 17.7 µM (active)
CC50 [11]: > 40 µM (active)
IC50 [12]: 1.53 µM (active)
IC50 [13]: 6.01 µM (active)

Clc1cccc(C[n+]2cc(-c3ccccc3)n3c2CCC3)c1
EC50 [1]: > 60 µM (not active)
EC50 [2]: < 0.1 µM (active)
EC50 [4]: 0.007 µM (active)
EC50 [14]: 0.944 µM (active)

COc1ccccc1C1=Nc2cccc3cccc(c23)N1
IC50 [15]: > 63.3 µM (active)
EC50 [1]: > 30 µM (not active)
EC50 [2]: 6.83 µM (active)
IC50 [16]: > 100 µM (inconclusive)
CC50 [11]: > 40 µM (active)
IC50 [12]: < 0.4 µM (not active)

CCC(C)Cn1c(O)cc2nn(-c3nc4ccccc4s3)c(=O)c-2c1C (centres undefined)
EC50 [17]: 0.058 µM (active)
EC50 [18]: 0.114 µM (active)
EC50 [19]: < 0.1 µM (active)
EC50 [20]: 0.165 µM (active)
IC50 [16]: > 50 µM (active)
EC50 [21]: 0.072 µM (active)
EC50 [22]: < 0.1 µM (active)

COc1ccc2c3c(cccc13)NN=C2C
EC50 [23]: 9.74 µM (active)
EC50 [24]: 13 µM (active)
IC50 [25]: 5.44 µM (active)
IC50 [26]: > 100 µM (not active)
IC50 [27]: > 100 µM (not active)
IC50 [28]: > 100 µM (not active)
